The source of these data is paper PMC2580802 (Cell, 2008).

SMILES strings stand for the structures. Converted amounts (≈) assume the structure as drawn. Where two headings read alike, the source gives them in different places. Where only a bound is given, the exact number is not on record here.

One assay relates to eukaryotic RNAP II. Particulars: cited from earlier work.
In a further assay the test system is E. coli DH21f2tolC. The class given is cell-based. Particulars: assessed with E. coli DH21f2tolC; J.M. and R.H.E., unpublished.
Assay [1] has as its system E. coli with wild-type RNAP β′ and wild-type RNAP β. The experiment in a line: microbe, parasite or virus in culture. The class given is cell-based. Particulars: Escherichia coli.
Another assay has as its system bacterial RNAP. Conditions: read-out: IC50, inhibition of bacterial RNAP; cited from earlier work.
The target in assay [2] is T1, wild-type RNAP (Escherichia coli, UniProt P0A8T7+P0A8V2).
Assay [3] deals with T1, wild-type RNAP. This is another data set of the same source.
Assay [4] concerns the target T2, Myx^r RNAP ([Arg345]β′-RNAP) (Escherichia coli, UniProt P0A8T7+P0A8V2, K345R). The class given is biochemical, E. coli.
For another assay, the system named is Enterobacter cloacae. Conditions: cited from earlier work.
Assay [5] concerns E. coli mutants with single substitutions in RNAP β′ or β subunit. The class given is cell-based.
Assay [6] addresses T2, Myx^r RNAP ([Arg345]β′-RNAP).
The target of assay [7] is T. thermophilus RNAP holoenzyme (Thermus thermophilus, UniProt Q8RQE8+Q8RQE9). The class given is biochemical. Conditions: read-out: IC50, inhibition of T. thermophilus RNAP holoenzyme.
The next assay deals with Staphylococcus aureus. Particulars: ref Irschik et al., 1995; J.M. and R.H.E., unpublished; cited from earlier work.
Assay [8] deals with Escherichia coli DH21tolC. Conditions: ref Irschik et al., 1995; J.M. and R.H.E., unpublished; cited from earlier work.

The IC50 is the point on the concentration scale where inhibition reaches its midpoint. As for `C/C=C/C/C=C(\C)C(O)CC/C(C)=C/C=C(\C)C(=O)c1c(O)cc([C@H](C)CC/C=C/NC(=O)OC)oc1=O` (stereo partly shown) [Cor, corallopyronin A], the “inhibition of eukaryotic RNAP II” value with eukaryotic RNAP II is on record as “does not inhibit”. Moreover, in the assay with E. coli DH21f2tolC, the bacteriocidal activity result is recorded as “bacteriocidal”. Also, in [1], the MIC is 1.6 µg/mL (≈ 3.03 µM). The IC50 in the assay on bacterial RNAP was roughly 4000 nM. The “effect on interaction of RNAP with promoter DNA” value at wild-type RNAP [2] was “prevents interaction of RNAP with promoter DNA”. Moreover, the “effect on transcription initiation” value on wild-type RNAP [3] is recorded as “inhibits transcription initiation”.

Consider `CCC/C(C)=C/C=C(\C)C(=O)c1c(O)cc([C@H](C)CC/C=C/NC(=O)OC)oc1=O` [Myx, myxopyronin A], for which the “inhibition of transcription with Myx^r RNAP” value in assay [4] is recorded as “abrogates inhibition”. In the assay on eukaryotic RNAP II, the “inhibition of eukaryotic RNAP II” value is reported as “does not inhibit”. For the same molecule, the bacteriocidal activity result in the assay with E. coli DH21f2tolC is reported as “bacteriocidal”. Besides, the MIC in the assay with Enterobacter cloacae is no more than 12.5 µg/mL. For the same molecule, the “increase in MIC” value in assay [5] (all four Myx^r mutants from random mutagenesis (Table S1)) is reported as no less than 2 fold; in [5] (three of four Myx^r mutants from random mutagenesis (Table S1)), no less than 32 fold. Also, the “inhibition of open-complex formation with Myx^r RNAP” value in assay [6] is recorded as “abrogates inhibition”. In addition, the IC50 in [7] was 20000 nM; in the assay with bacterial RNAP, roughly 1000 nM; on wild-type RNAP [2] (read-out: IC50, inhibition of formation of stable, heparin-resistant RNAP-promoter open complex, promoter DNA fragment), 800 ± 300 nM; on wild-type RNAP [3] (read-out: IC50, inhibition of formation of abortive products, run-off transcription, promoter DNA fragment), 1700 ± 600 nM. The “inhibition of formation of stable, heparin-resistant RNAP-DNA complex” value against wild-type RNAP [2] (fork-junction DNA fragment (lacks positions −11 to +15 of template strand)) was “does not inhibit”. Moreover, the “inhibition of formation of stable, heparin-resistant RNAP-DNA complexes” value at wild-type RNAP [2] (nontemplate-strand oligonucleotide (positions −21 to +15)) is given as “does not inhibit”.

Turning to `CO[C@H]1/C=C/O[C@@]2(C)Oc3c(C)c(O)c4c(O)c(c(/C=N/N5CCN(C)CC5)c(O)c4c3C2=O)NC(=O)/C(C)=C\C=C\[C@H](C)[C@H](O)[C@@H](C)[C@@H](O)[C@@H](C)[C@H](OC(C)=O)[C@@H]1C` [Rif, rifampicin], the “cross-resistance of Myx^r mutants” value in [5] (Myx^r mutants (Table 1)) is “do not exhibit cross-resistance”. Also, in [1], the MIC was 0.1 µg/mL (≈ 0.122 µM).

For `C/C(=C\Cc1ccccc1)CC[C@@]1(O)C[C@H]2C[C@@H](C/C(C)=C/C/C=C/C/C(CC(=O)O)=C\C(=O)O2)O1` [Rip, ripostatin A], the MIC (in the assay on Staphylococcus aureus; in assay [8]) was no more than 1 µg/mL in each case. Further, in the assay with eukaryotic RNAP II, the “inhibition of eukaryotic RNAP II” value is on record as “does not inhibit”. Further, in the assay on E. coli DH21f2tolC, the bacteriocidal activity result is given as “bacteriocidal”. Also, in the assay on bacterial RNAP, the IC50 was roughly 800 nM. Further, the “effect on interaction of RNAP with promoter DNA” value on wild-type RNAP [2] is “prevents interaction of RNAP with promoter DNA”. The “effect on transcription initiation” value at wild-type RNAP [3] was “inhibits transcription initiation”.
